According to patent US20060161007A1, “Oxazole and thiazole combinatorial libraries” (priority 1999, published 2006):

Assays:
[1] = tested on: Vibrio anguillarum; test: growth of Vibrio anguillarum cultures (OD650) after incubation with peptide; assay type: cell-based; conditions: for OD650 of V. anguillarum cultures: 28°; for killing of the bacteria: OD of the cultures still increased at different incubation times; for effect on the growth of V. anguillarum cultures: result in words
Method: The marin bacterium Vibrio anguillarum, a fish pathogen causing the disease “vibriosis” in marine fish and shellfish were used in this experiment.
Bacteria (V. anguillarum) were grown overnight at 28° C. in Luria-Bertani (LB) 20 medium (the concentration of NaCl is 20 g/L for marine bacteria in LB medium, instead of the usual 10 g/L). The culture was re-inoculated and incubated in LB20 medium at 28° C. (ca. 2hr) to reach the exponential growth phase of the bacteria. The bacterial suspension was then dilute with 0.1×LB20 medium to make the bacterial dilution containing 2×10^3 colony-forming units (cfm)/ml.
At time zero, the bacteria were treated with the peptide in 0.1×LB20 medium. After incubation for 3 hours, 1×LB20 medium was added to the culture, and incubated for 20 hours.

[2] = tested on: DNA; test: DNA binding activity by capillary zone electrophoresis
Method: The DNA binding activity of the tetrapeptide amides in the first library was measured using capillary zone electrophoresis.

[3] = solubility of building block 3 in solvents; assay type: physicochemical
Method: 2-(2′-Boc-aminomethyl-oxazole-4′-yl)-thiazole-4-carboxylic acid (37) (0.65 g, 2 mmol) was added in 30 ml of 40% TFA in DCM and stirred for 60 min. The solvent was removed by concentration under reduced pressure. The residue was diluted with 10 ml of water, which was neutralized to pH 7 by adding 1 M sodium hydroxide (aqueous solution), followed by addition of solid sodium carbonate (0.42 g, 4 mmole) and a solution of Fmoc-OSu (1 g, 3 mmole) in 60 ml of THF. After stirring for 2 hours (white solid precipitated), the reaction mixture was concentrated under reduced pressure to remove the THF, and diluted with 30 ml of water. The aqueous solution was washed with DCM (50 ml×3), and acidified to pH 3 by adding 10% potassium hydrogensulfate (aqueous solution). The white solid which formed was collected by filtration. This product was insoluble in DCM, ether, EtOAc, THF, methanol, ethanol, acetonitrile, HFIP, DMF, NMP and water. It was soluble in DMSO or the solutions containing more than 50% DMSO in DMF or NMP. The product was recrystallized in DMSO-water to give a fine white powder (0.69 g). Yield: 77%. RP-HPLC analysis: retention […]=14.18 min (average of two runs). ^1H-NMR (90 MHz, DMSO-d6) δ ppm: 8.74 (s, 1H), 8.38 (s, 1H), 7.89-7.31 (m, 8H), and 4.394.30 (m, 5H). ESI-MS (m/z): 448.2 [M +H]+, (calculated monoisotopic mass 448.10), 470.2 [M+Na]^+, 486.2 [M+K]^+.

[4] = 31.2 μM peptide, 9 hr incubation
[5] = 31.2 μM peptide, 20 hr incubation
[6] = 62.5 μM peptide, 9 hr incubation
[7] = 62.5 μM peptide, 20 hr incubation
[8] = 125 μM peptide, 9 hr incubation
[9] = 125 μM peptide, 20 hr incubation
[10] = 250 μM peptide, 9 hr incubation
[11] = 250 μM peptide, 20 hr incubation
[12] = 500 μM peptide, 9 hr incubation
[13] = 500 μM peptide, 20 hr incubation

| Compound | OD650 of V. anguillarum cultures [1, 4] | OD650 of V. anguillarum cultures [1, 5] | OD650 of V. anguillarum cultures [1, 6] | OD650 of V. anguillarum cultures [1, 7] | OD650 of V. anguillarum cultures [1, 8] | OD650 of V. anguillarum cultures [1, 9] | OD650 of V. anguillarum cultures [1, 10] | OD650 of V. anguillarum cultures [1, 11] | OD650 of V. anguillarum cultures [1, 12] | OD650 of V. anguillarum cultures [1, 13] | killing of the bacteria [1] | effect on the growth of V. anguillarum cultures [1] | Ka(1), stoichiometric equilibrium binding constant near saturation [2] | also measured |
| --- | --- | --- | --- | --- | --- | --- | --- | --- | --- | --- | --- | --- | --- | --- |
| CC(=O)NCc1nc(-c2nc(C(=O)NCC(=O)NCc3nc(-c4nc(C(=O)NCCCN)cs4)co3)cs2)co1 [Compound L2-9] | 0.135 | 0.417 | 0.135 | 0.421 | 0.131 | 0.425 | 0.125 | 0.409 | 0.075 | 0.354 | did not kill the bacteria | inhibited the growth |  |  |
| 2-(Fmoc-aminomethyl)-oxazole-4-carboxylic acid [Compound 2] |  |  |  |  |  |  |  |  |  |  |  |  | 24000 M⁻¹ |  |
| CC(=O)NCc1nc(-c2nc(C(=O)NCC(=O)NCc3nc(C(=O)NCCCN)co3)cs2)co1 [Compound L2-6] | 0.137 | 0.395 | 0.130 | 0.391 | 0.120 | 0.402 | 0.113 | 0.427 | 0.073 | 0.388 | did not kill the bacteria | inhibited the growth |  |  |
| 2-(Fmoc-aminomethyl)-thiazole-4-carboxylic acid [Compound 1] |  |  |  |  |  |  |  |  |  |  |  |  | 25000 M⁻¹ |  |
| tachyplesin [reference compound] |  |  |  |  |  |  |  |  |  |  |  |  |  | OD650 of V. anguillarum cultures ([1]; 6.25 μg/ml peptide, 9 hr incubation): 0.068; OD650 of V. anguillarum cultures ([1]; 6.25 μg/ml peptide, 20 hr incubation): 0.036; OD650 of V. anguillarum cultures ([1]; 12.5 μg/ml peptide, 9 hr incubation): 0.035; OD650 of V. anguillarum cultures ([1]; 12.5 μg/ml peptide, 20 hr incubation): 0.035; OD650 of V. anguillarum cultures ([1]; 25 μg/ml peptide, 9 hr incubation): 0.035; OD650 of V. anguillarum cultures ([1]; 25 μg/ml peptide, 20 hr incubation): 0.035; OD650 of V. anguillarum cultures ([1]; 50 μg/ml peptide, 9 hr incubation): 0.039; OD650 of V. anguillarum cultures ([1]; 50 μg/ml peptide, 20 hr incubation): 0.038; OD650 of V. anguillarum cultures ([1]; Dilution 5 (31.2 μg/ml) peptide, 9 hr incubation): 0.098; OD650 of V. anguillarum cultures ([1]; Dilution 5 (31.2 μg/ml) peptide, 20 hr incubation): 0.034 |
| O=C(NCc1nc(-c2nc(C(=O)O)cs2)co1)OCC1c2ccccc2-c2ccccc21 [Compound 3, 2-(2′-Fmoc-aminomethyl-oxazole-4′-yl)-thiazole-4-carboxylic acid] |  |  |  |  |  |  |  |  |  |  |  |  |  | solubility ([3]; in DCM, ethyl ether, EtOAc, THF, methanol, ethanol, acetonitrile, HFIP, DMF, NMP or water): did not dissolve; solubility ([3]; in DCM, ethyl ether, EtOAc, THF, methanol, ethanol, acetonitrile, HFIP, DMF, NMP or water, listed as Compound (3)): insoluble; solubility ([3]; in DMSO, or solutions containing at least 50% DMSO in DMF or NMP): could only dissolve; solubility ([3]; in DMSO, or solutions containing at least 50% DMSO in DMF or NMP, listed as Compound (3)): soluble |
| CC(=O)NCc1nc(-c2nc(C(=O)NCC(=O)NCc3nc(C(=O)NCCCN)cs3)cs2)co1 [Compound L2-3] |  |  |  |  |  |  |  |  |  |  |  | did not have a detectable effect |  |  |
| Microcin B17 fragment 13-23 [Compound 39] | 0.111 | 0.419 | 0.082 | 0.297 | 0.051 | 0.279 | 0.034 | 0.241 | 0.034 | 0.244 | did not kill the bacteria | inhibited the growth |  |  |
| 2-(2′-Fmoc-aminomethyl-oxazole-4′-yl)-thiazole-4-carboxylic acid [Compound 3] |  |  |  |  |  |  |  |  |  |  |  |  | 20000 M⁻¹ |  |
